# Reference: PubChem BioAssay AID1996
# Conditions: buffer; pH 7.4; 200.0 µM
row,solubility kinetic,Structure (SMILES)
1,4.3 µg/mL,Nc1ccccc1N1C(=O)c2cccc3cccc(c23)C1=O
2,2.8 µg/mL,CCOC(=O)CNC(=O)CSc1nc(-c2ccc(OC)cc2)ns1
3,16.7 µg/mL,Nc1cccc([N+](=O)[O-])c1
4,2.5 µg/mL,O=C(CNC(=O)c1ccco1)Nc1ccc(F)c(Cl)c1
5,18.9 µg/mL,Cc1ccc(NS(=O)(=O)c2csc(C(N)=O)c2)cc1C
6,12.9 µg/mL,Cc1nc(Nc2ccc(O)cc2)c2c3c(sc2n1)CCCC3
7,48.1 µg/mL,O=C(CN1C(=O)C2C3CCC(C3)C2C1=O)OCC(=O)c1ccccc1 (stereo unspecified)
8,> 68.8 µg/mL,CN(CC(=O)NCCc1ccc(S(N)(=O)=O)cc1)CC(=O)Nc1ccc(F)c(F)c1F
9,4.2 µg/mL,Cc1ccc(NC(=S)NC(=O)C2CCCC2)c(Br)c1
10,25.2 µg/mL,COc1ccc2cc3c(nc2c1)OCC3
11,> 35 µg/mL,O=C(Nc1ccncc1Cl)c1ccncc1
12,33.2 µg/mL,O=[N+]([O-])c1ccccc1/C=C/CN1CCCC(CO)C1 (stereo unspecified)
13,> 62.6 µg/mL,COc1ccc(CCC(=O)OCC(=O)NCc2ccc(OC)c(OC)c2)cc1OC
14,> 47.2 µg/mL,COc1ccc2nc(/N=C/c3cccc(OC)c3O)sc2c1
15,41.7 µg/mL,Cc1ccccc1NC(=S)Nc1ccc2[nH]c(=O)[nH]c2c1
16,> 44.1 µg/mL,Cc1cc(S(=O)(=O)NCC2CC2)c(Cl)cc1Cl
17,> 40.7 µg/mL,COc1ccc(C(=O)O/N=C(\N)c2ccccn2)cc1
18,> 59.5 µg/mL,NS(=O)(=O)c1cccc(NC(=O)COC(=O)CCC(=O)c2cccs2)c1
19,> 48.7 µg/mL,N#CCCN(Cc1cccnc1)C(=S)NC(=O)c1ccccc1
20,> 45.9 µg/mL,COc1ccc(S(=O)(=O)NC2CC2)cc1Br
21,44.1 µg/mL,COc1ccc(C(=O)O)cc1S(=O)(=O)NCCN(C)C

row,solubility kinetic,Structure (SMILES)
1,> 41.5 µg/mL,CCCCNC(=O)C1CCCN(S(=O)(=O)CC)C1 (stereo unspecified)
2,26.7 µg/mL,CNc1ccc([N+](=O)[O-])cc1C(=O)O
3,27.3 µg/mL,CCCCN(Cc1ccccc1)C1CCN(Cc2ccccc2)CC1
4,> 51.7 µg/mL,CC(=O)NC(CC(=O)NCCOc1ccccc1F)c1ccccc1 (stereo unspecified)
5,8.5 µg/mL,O=C1NC(c2ccccc2Cl)=N/C1=C/c1ccco1
6,> 44.6 µg/mL,COc1ccccc1/C=C(\C)C(=O)c1c(C)cc(C)[nH]c1=O
7,35.6 µg/mL,Cc1cc(C)c(NC(=O)COC(=O)c2ccncc2)c(C)c1
8,> 49.4 µg/mL,CC1CCN(C(=O)COC(=O)c2cc3ccccc3oc2=O)CC1
9,< 0.3 µg/mL,CCOC(=O)/C(C#N)=C/c1cccn1-c1ccc(Cl)cc1
10,41.1 µg/mL,COC(=O)C(C(=O)OC)c1ncc(C(F)(F)F)cc1Cl
11,15.6 µg/mL,COC(=O)c1oc(-c2ccccc2)nc1C
12,2.9 µg/mL,Cc1cccc2nc(-c3ccco3)c(Nc3ccccc3)n12
13,43.7 µg/mL,CC(C)(C)NS(=O)(=O)c1ccc(NC(=O)C2CCCO2)cc1 (stereo unspecified)
14,38.3 µg/mL,Cc1ccc(C)n1-c1ccc(C(=O)NCc2ccncc2)cc1
15,> 43.2 µg/mL,O=C1CCC([N+](=O)[O-])C(c2ccc(C(F)(F)F)cc2)N1 (stereo unspecified)
16,7.6 µg/mL,CC1(C)CC2CC(C)(CN2C(=O)COC(=O)c2ccc(NC(=O)CC#N)cc2)C1 (stereo unspecified)
17,> 43.6 µg/mL,C[C@H](NC(=O)N1CCC(Cc2ccccc2)CC1)C(=O)O
18,> 45.3 µg/mL,CCc1noc(C)c1C(=O)OCC(=O)NCc1ccccc1
19,39.5 µg/mL,CCCn1c(COc2ccccc2OC)nc2ccccc21
20,41.1 µg/mL,COc1cc2c(cc1OC)C(C)N(S(=O)(=O)c1cccs1)CC2 (stereo unspecified)
21,43.1 µg/mL,CCC1CCCCN1C(=O)CSc1nc(N)cc(N)n1 (stereo unspecified)

row,solubility kinetic,Structure (SMILES)
1,> 37.7 µg/mL,S=C(c1ccc2c(c1)OCO2)N1CCOCC1
2,> 44.6 µg/mL,O=c1cc(C(F)(F)F)[nH]c2ccc(OC(F)(F)F)cc12
3,> 44.5 µg/mL,O=C(NC(=S)N1CCCCCC1)c1ccccc1Cl
4,19.9 µg/mL,CCOC(=O)C1CCN(C(=S)Nc2ccc(C)cc2)CC1
5,> 42.5 µg/mL,O=S(=O)(c1ccc2ncn(O)c2c1)N1CCOCC1
6,> 41.9 µg/mL,Cc1ccc(C(=O)O)cc1NC(=O)C1=CSCCO1
7,12.5 µg/mL,Cc1ccc(NC(=S)N2CCCC2)cc1Cl
8,> 37 µg/mL,O=C(NCc1ccccc1Cl)c1ccncc1
9,> 39.7 µg/mL,O=c1c([N+](=O)[O-])cccn1Cc1cccc(Cl)c1
10,> 45.2 µg/mL,O=C(COc1ccc2ccc(=O)oc2c1)NC1CCCCC1
11,1.1 µg/mL,CC(C)(C)c1csc(Sc2ccc([N+](=O)[O-])cn2)n1
12,45.1 µg/mL,CCN(CC)c1nc(N)n(CCSC(=S)N(C)C)c(=O)n1
13,26.4 µg/mL,O=C(CNC(=O)Cc1ccc(Cl)cc1)NCc1ccco1
14,10.2 µg/mL,CC(=O)c1cc(C#N)c(SCc2ccccn2)nc1C
15,< 0.6 µg/mL,COc1ccc(CNc2ccc(Br)cc2)cc1
16,> 47.2 µg/mL,Cc1onc(-c2ccccc2)c1-c1ccc(S(N)(=O)=O)cc1
17,5.1 µg/mL,CC1Cc2ccccc2N1C(=O)COC(=O)c1ccc(O)cc1 (stereo unspecified)
18,10.3 µg/mL,COc1ccc(CCC(=O)NCc2cccc(C(F)(F)F)c2)cc1
19,> 47.8 µg/mL,CC(=O)Nc1ccc(S(=O)(=O)NC(C)c2ccccc2)cc1 (stereo unspecified)
